Data as given in patent US20160038521A1, “THERAPEUTIC METHODS” (UNIVERSITY OF IOWA RESEARCH FOUNDATION, priority 2013, published 2016).
“Also recorded” adds a separate entry of the source.

How the values were obtained:
Cdc42 = Cdc42 activity (Cdc42-GTP levels) in mouse brain endothelial cells; type: cell-based; settings: for Cdc42 activity: CLN3−/− MBEC, p<0.05
From the text: FIGS. 2A and 2B. Carbenoxolone reduces Cdc42 activity in CLN3-null JNCL mouse brain endothelial cells (MBEC). […] FIG. 3: CBX corrects Cdc42-GTP levels. […] Data represent the mean of three independent experiments, error bars±SEM (1-way ANOVA with TUKEY post-hoc, (*, p<0.05, n.s.=not significant).

[1] = test system: CLN3-null JNCL mouse brain endothelial cells; assay: Scratch wound cell migration, live cell microscopy; type: cell-based; settings: CLN3−/− MBEC, CBX vs mock, overnight
Procedure: FIG. 4. Carbenoxolone normalizes migration of CLN3-null JNCL mouse brain endothelial cells. Cell migration induced by a scratch in cell monolayers was measured using live cell microscopy and quantified by T-Scratch software. CLN3-expressing (CLN3-R) and CLN3-null (CLN3-/-) MBEC were grown to confluence. A gap in the monolayer was made by “[…] wound”, and the rate of cell migration to fill in the gap was monitored by live cell microscopy. CLN3-/- MBEC show a delayed ability to fill in the gap. Carbenoxolone treatment corrects this defect. Cells were either treated with CBX or left untreated (mock) in the presence or absence of CBX. Data are collected overnight. Data represent the mean of three independent experiments, error bars±SEM (2-way ANOVA with Bonferroni post-hoc correction, *, p<0.05).

Cln3−/− MBECs = assay: Fluid-phase endocytosis, uptake of fluorescent dextran; type: cell-based, mouse; settings: 25 μM CBX for 30 minutes
Procedure: FIG. 5. Correction of fluid-phase endocytosis by CBX. Hoechst 33342 to label DNA (blue) and saline (mock) or 25 μM CBX was added to cell culture media for 30 minutes. Fluid-phase endocytic uptake in the presence of CBX or PBS was determined by uptake of fluorescent dextran (green). Extracellular dextran was quenched by Red-40 and cells were imaged by epifluorescence. ImageJ was used to calculate fluorescence intensity. Data represent the mean of three independent experiments, error bars±SEM (1-way ANOVA with TUKEY post-hoc, ***, p<0.0001). Scale bar=10 μm.

caveolin-1 = assay: Caveolin-1 transport to the cell membrane, immunofluorescence; type: cell-based, mouse; settings: CLN3−/− MBEC, 25 μM for 2 h
Procedure: FIG. 6. Carbenoxolone restores caveolin-1 transport to the cell membrane in CLN3-null JNCL mouse brain endothelial cells. CLN3-expressing (CLN3-R) and CLN3-null (CLN3−/−) MBEC were untreated or cultured with 25 μM carbenoxolone for 2 h, then immunofluorescently stained for caveolin-1. Without treatment, caveolin-1 transport to the plasma membrane is impaired in CLN3−/− MBEC. Carbenoxolone restores normal caveolin-1 trafficking to the plasma membrane.

[2] = test system: plasma membrane cholesterol; assay: Cholesterol distribution at the plasma membrane, Amplex Red Cholesterol assay; type: cell-based, mouse; settings: CBX 25 μM for 2 hours vs mock
Procedure: Plasma membranes are detergent-free fractionated and cholesterol levels in each fraction are quantified by the Amplex Red® Cholesterol assay kit. A representative experiment from four independent experiments is shown with CBX 25 μM for 2 hours or mock treatment.

Cln3−/− mice = assay: Autofluorescent inclusions in cingulate cortex brain sections; type: in vivo, mouse; settings: gavage 20 mg/kg daily for two weeks, p<0.05
From the text: FIG. 11: CBX treatment reduces Cln3^−/− autofluorescent inclusions. Thin (50 μm) brain sections from mice treated as in were imaged under low magnification in the red channel to detect autofluorescence. Four images were taken of each cingulate cortex, and fluorescence intensity averaged in ImageJ. Data represent a minimum of 4 mice per group. Error bars±SEM (1-way ANOVA with TUKEY post-hoc, *, p<0.05) Scale bar=200 μm.

[3] = Leshchenko et al., 2006; cited from earlier work

Compound: CC1(C)[C@@H](OC(=O)CCC(=O)O)CC[C@]2(C)[C@H]3C(=O)C=C4[C@@H]5C[C@@](C)(C(=O)O)CC[C@]5(C)CC[C@@]4(C)[C@]3(C)CC[C@@H]12 [CBX, carbenoxolone]
- Cdc42 activity level (Cdc42; CLN3-R (CLN3-expressing) MBEC, CBX 50 μM for 2 h): does not alter
- Cdc42 activity (Cdc42; CBX 50 μM for 2 h): effectively normalized
- Cdc42 activity (Cdc42; CBX 50 μM for 2 h, listed as Carbenoxolone): significantly reduces
- Cdc42-GTP levels (Cdc42; Cln3−/− MBECs, CBX 25 μM for 2 hours vs saline (mock)): corrects; also recorded: reduces
- Cell migration (rate of filling scratch gap) [1]: increases cell migration
- Cell migration (rate of filling scratch gap) ([1]; listed as Carbenoxolone): normalizes
- Fluid-phase endocytosis (fluorescent dextran uptake) (Cln3−/− MBECs): Correction; also recorded: increases fluid-phase endocytosis
- Caveolin-1 transport to the plasma membrane (caveolin-1): restores
- Cholesterol distribution at the plasma membrane [2]: corrects cholesterol distribution
- Autofluorescent inclusions (fluorescence intensity, cingulate cortex) (Cln3−/− mice): reduces
- Ability to pass the blood-brain barrier (BBB) [3]: little or no ability
